# According to PubChem BioAssay (NCI):
#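 Protocol summary: plate cells (96-well), add compound at 5 concentrations, incubate 48 h, interpolate endpoints linearly. The concentration for full growth arrest is given as TGI.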
# How the values were obtained:
# Assay in all cases: NCI anticancer screen, dose series, 48 h
# OVCAR-4 ovarian = tested on: OVCAR-4 ovarian
# SR leukemia = tested on: SR leukemia
# SF-295 CNS = tested on: SF-295 CNS
# HCT-15 colon = tested on: HCT-15 colon
# PC-3 prostate = tested on: PC-3 prostate
# SK-OV-3 ovarian = tested on: SK-OV-3 ovarian
# CCRF-CEM leukemia = tested on: CCRF-CEM leukemia
# SN12C renal = tested on: SN12C renal
# MOLT-4 leukemia = tested on: MOLT-4 leukemia
# UACC-257 melanoma = tested on: UACC-257 melanoma
# COLO 205 colon = tested on: COLO 205 colon
# DU-145 prostate = tested on: DU-145 prostate
# IGROV1 ovarian = tested on: IGROV1 ovarian
# SK-MEL-28 melanoma = tested on: SK-MEL-28 melanoma
# NCI-H460 lung = tested on: NCI-H460 lung
# KM12 colon = tested on: KM12 colon
# OVCAR-5 ovarian = tested on: OVCAR-5 ovarian
# EKVX NSCLC = tested on: EKVX NSCLC
# SNB-75 CNS = tested on: SNB-75 CNS
# 786-0 renal = tested on: 786-0 renal
# HCC-2998 colon = tested on: HCC-2998 colon
# CAKI-1 renal = tested on: CAKI-1 renal
# SK-MEL-5 melanoma = tested on: SK-MEL-5 melanoma
# K-562 leukemia = tested on: K-562 leukemia
# SW-620 colon = tested on: SW-620 colon
# TK-10 renal = tested on: TK-10 renal
# ACHN renal = tested on: ACHN renal
# SF-539 CNS = tested on: SF-539 CNS
# MDA-MB-231 breast = tested on: MDA-MB-231 breast
# MCF7 breast = tested on: MCF7 breast
# NCI-H23 lung = tested on: NCI-H23 lung
# HCT-116 colon = tested on: HCT-116 colon
# HT29 colon = tested on: HT29 colon
# HL-60(TB) leukemia = tested on: HL-60(TB) leukemia
# OVCAR-8 ovarian = tested on: OVCAR-8 ovarian
# T-47D breast = tested on: T-47D breast
# NCI-H522 lung = tested on: NCI-H522 lung
# HS 578T breast = tested on: HS 578T breast
# UACC-62 melanoma = tested on: UACC-62 melanoma
# A498 renal = tested on: A498 renal
# SNB-19 CNS = tested on: SNB-19 CNS
# UO-31 renal = tested on: UO-31 renal
# SF-268 CNS = tested on: SF-268 CNS
# MDA-N = tested on: MDA-N
# HOP-62 NSCLC = tested on: HOP-62 NSCLC
# U251 CNS = tested on: U251 CNS
# BT-549 breast = tested on: BT-549 breast
# A549 NSCLC = tested on: A549 NSCLC
# OVCAR-3 ovarian = tested on: OVCAR-3 ovarian
# NCI-H226 lung = tested on: NCI-H226 lung
# NCI/ADR-RES ovarian = tested on: NCI/ADR-RES ovarian
# SK-MEL-2 melanoma = tested on: SK-MEL-2 melanoma
# MDA-MB-435 = tested on: MDA-MB-435
# RXF 393 renal = tested on: RXF 393 renal
# M14 melanoma = tested on: M14 melanoma
# MALME-3M melanoma = tested on: MALME-3M melanoma
# LOX IMVI melanoma = tested on: LOX IMVI melanoma
# RPMI-8226 leukemia = tested on: RPMI-8226 leukemia
# HOP-92 NSCLC = tested on: HOP-92 NSCLC
compound,measurement,setting,value
C[C@H](CSC(=O)c1ccccc1)C(=O)N1c2ccccc2C[C@H]1C(=O)O,TGI,OVCAR-4 ovarian,> 100 µM
same,TGI,SR leukemia,> 100 µM
same,TGI,SF-295 CNS,> 100 µM
same,TGI,HCT-15 colon,> 100 µM
same,TGI,PC-3 prostate,> 100 µM
same,TGI,SK-OV-3 ovarian,> 100 µM
same,TGI,CCRF-CEM leukemia,> 100 µM
same,TGI,SN12C renal,> 100 µM
same,TGI,MOLT-4 leukemia,> 100 µM
same,TGI,UACC-257 melanoma,> 100 µM
same,TGI,COLO 205 colon,> 100 µM
same,TGI,DU-145 prostate,> 100 µM
same,TGI,IGROV1 ovarian,> 100 µM
same,TGI,SK-MEL-28 melanoma,> 100 µM
same,TGI,NCI-H460 lung,> 10 µM
same,TGI,KM12 colon,> 10 µM
same,TGI,OVCAR-5 ovarian,> 100 µM
same,TGI,EKVX NSCLC,> 100 µM
same,TGI,SNB-75 CNS,> 100 µM
same,TGI,786-0 renal,> 10 µM
same,TGI,HCC-2998 colon,> 100 µM
same,TGI,CAKI-1 renal,> 100 µM
same,TGI,SK-MEL-5 melanoma,> 100 µM
same,TGI,K-562 leukemia,> 100 µM
same,TGI,SW-620 colon,> 100 µM
same,TGI,TK-10 renal,> 100 µM
same,TGI,ACHN renal,> 100 µM
same,TGI,SF-539 CNS,> 100 µM
same,TGI,MDA-MB-231 breast,> 100 µM
same,TGI,MCF7 breast,> 100 µM
same,TGI,NCI-H23 lung,> 100 µM
same,TGI,HCT-116 colon,> 100 µM
same,TGI,HT29 colon,> 100 µM
same,TGI,HL-60(TB) leukemia,> 100 µM
same,TGI,OVCAR-8 ovarian,> 100 µM
same,TGI,T-47D breast,> 100 µM
same,TGI,NCI-H522 lung,> 100 µM
same,TGI,HS 578T breast,> 100 µM
same,TGI,UACC-62 melanoma,> 100 µM
same,TGI,A498 renal,> 100 µM
same,TGI,SNB-19 CNS,> 100 µM
same,TGI,UO-31 renal,> 100 µM
same,TGI,SF-268 CNS,> 100 µM
same,TGI,MDA-N,> 100 µM
same,TGI,HOP-62 NSCLC,> 100 µM
same,TGI,U251 CNS,> 100 µM
same,TGI,BT-549 breast,> 100 µM
same,TGI,A549 NSCLC,> 100 µM
same,TGI,OVCAR-3 ovarian,> 100 µM
same,TGI,NCI-H226 lung,> 100 µM
same,TGI,NCI/ADR-RES ovarian,> 100 µM
Cc1ccc(NC(=O)CC(=O)n2nc(C)c(N=Nc3ccc(S(=O)(=O)CCOS(=O)(=O)O)cc3)c2C)cc1,TGI,SK-MEL-2 melanoma,> 100 µM
same,TGI,SF-295 CNS,> 100 µM
same,TGI,PC-3 prostate,> 100 µM
same,TGI,SK-OV-3 ovarian,> 100 µM
same,TGI,CCRF-CEM leukemia,> 100 µM
same,TGI,MOLT-4 leukemia,> 100 µM
same,TGI,UACC-257 melanoma,> 100 µM
same,TGI,COLO 205 colon,> 100 µM
same,TGI,DU-145 prostate,> 100 µM
same,TGI,MDA-MB-435,> 100 µM
same,TGI,IGROV1 ovarian,> 100 µM
same,TGI,SK-MEL-28 melanoma,> 100 µM
same,TGI,NCI-H460 lung,> 100 µM
same,TGI,RXF 393 renal,> 100 µM
same,TGI,KM12 colon,> 100 µM
same,TGI,OVCAR-5 ovarian,> 100 µM
same,TGI,EKVX NSCLC,> 100 µM
same,TGI,SNB-75 CNS,> 100 µM
same,TGI,786-0 renal,> 100 µM
same,TGI,HCC-2998 colon,> 100 µM
same,TGI,SK-MEL-5 melanoma,> 100 µM
same,TGI,K-562 leukemia,> 100 µM
same,TGI,SW-620 colon,> 100 µM
same,TGI,TK-10 renal,> 100 µM
same,TGI,ACHN renal,> 100 µM
same,TGI,SF-539 CNS,> 100 µM
same,TGI,MDA-MB-231 breast,> 100 µM
same,TGI,M14 melanoma,> 100 µM
same,TGI,MCF7 breast,> 100 µM
same,TGI,NCI-H23 lung,> 100 µM
same,TGI,HCT-116 colon,> 100 µM
same,TGI,HT29 colon,> 100 µM
same,TGI,HL-60(TB) leukemia,> 100 µM
same,TGI,OVCAR-8 ovarian,> 100 µM
same,TGI,T-47D breast,> 100 µM
same,TGI,NCI-H522 lung,> 100 µM
same,TGI,MALME-3M melanoma,> 100 µM
same,TGI,HS 578T breast,> 100 µM
same,TGI,UACC-62 melanoma,> 100 µM
same,TGI,LOX IMVI melanoma,> 100 µM
same,TGI,A498 renal,> 100 µM
same,TGI,SNB-19 CNS,> 100 µM
same,TGI,UO-31 renal,> 100 µM
same,TGI,SF-268 CNS,> 100 µM
same,TGI,MDA-N,> 100 µM
same,TGI,HOP-62 NSCLC,> 100 µM
same,TGI,U251 CNS,> 100 µM
same,TGI,A549 NSCLC,> 100 µM
same,TGI,RPMI-8226 leukemia,> 100 µM
same,TGI,OVCAR-3 ovarian,> 100 µM
same,TGI,NCI-H226 lung,> 100 µM
same,TGI,NCI/ADR-RES ovarian,> 100 µM
NC1CNC(=O)c2cscc21 (stereo not drawn),TGI,OVCAR-4 ovarian,> 100 µM
same,TGI,SR leukemia,> 100 µM
same,TGI,SF-295 CNS,> 100 µM
same,TGI,HCT-15 colon,> 100 µM
same,TGI,PC-3 prostate,> 100 µM
same,TGI,CCRF-CEM leukemia,> 100 µM
same,TGI,SN12C renal,> 100 µM
same,TGI,MOLT-4 leukemia,> 100 µM
same,TGI,UACC-257 melanoma,> 100 µM
same,TGI,COLO 205 colon,> 100 µM
same,TGI,DU-145 prostate,> 100 µM
same,TGI,MDA-MB-435,> 100 µM
same,TGI,IGROV1 ovarian,> 100 µM
same,TGI,SK-MEL-28 melanoma,> 100 µM
same,TGI,NCI-H460 lung,> 100 µM
same,TGI,RXF 393 renal,> 100 µM
same,TGI,KM12 colon,> 100 µM
same,TGI,OVCAR-5 ovarian,> 100 µM
same,TGI,EKVX NSCLC,> 100 µM
same,TGI,786-0 renal,> 100 µM
same,TGI,HCC-2998 colon,> 100 µM
same,TGI,CAKI-1 renal,> 100 µM
same,TGI,SK-MEL-5 melanoma,> 100 µM
same,TGI,K-562 leukemia,> 100 µM
same,TGI,SW-620 colon,> 100 µM
same,TGI,ACHN renal,> 100 µM
same,TGI,M14 melanoma,> 100 µM
same,TGI,MCF7 breast,> 100 µM
same,TGI,NCI-H23 lung,> 100 µM
same,TGI,HCT-116 colon,> 100 µM
same,TGI,HT29 colon,> 100 µM
same,TGI,HL-60(TB) leukemia,> 100 µM
same,TGI,NCI-H522 lung,> 100 µM
same,TGI,MALME-3M melanoma,> 100 µM
same,TGI,HS 578T breast,> 100 µM
same,TGI,UACC-62 melanoma,> 100 µM
same,TGI,LOX IMVI melanoma,> 100 µM
same,TGI,A498 renal,> 100 µM
same,TGI,SNB-19 CNS,> 100 µM
same,TGI,UO-31 renal,> 100 µM
same,TGI,SF-268 CNS,> 100 µM
same,TGI,MDA-N,> 100 µM
same,TGI,U251 CNS,> 100 µM
same,TGI,BT-549 breast,> 100 µM
same,TGI,A549 NSCLC,> 100 µM
same,TGI,HOP-92 NSCLC,> 100 µM
same,TGI,RPMI-8226 leukemia,> 100 µM
same,TGI,OVCAR-3 ovarian,> 100 µM
same,TGI,NCI/ADR-RES ovarian,> 100 µM
O=[N+]([O-])/C(C(Cl)=C(Cl)Cl)=C1/OCCS1,TGI,SK-MEL-2 melanoma,57.2 µM
same,TGI,OVCAR-4 ovarian,> 100 µM
same,TGI,SR leukemia,71.5 µM
same,TGI,SF-295 CNS,90.5 µM
same,TGI,HCT-15 colon,61 µM
same,TGI,PC-3 prostate,> 100 µM
same,TGI,SK-OV-3 ovarian,> 100 µM
same,TGI,CCRF-CEM leukemia,35.4 µM
same,TGI,SN12C renal,43.8 µM
same,TGI,MOLT-4 leukemia,41.2 µM
same,TGI,UACC-257 melanoma,67.3 µM
same,TGI,COLO 205 colon,36.8 µM
same,TGI,DU-145 prostate,> 100 µM
same,TGI,MDA-MB-435,47.3 µM
same,TGI,IGROV1 ovarian,47.7 µM
same,TGI,SK-MEL-28 melanoma,96.5 µM
same,TGI,NCI-H460 lung,71.4 µM
same,TGI,RXF 393 renal,41.3 µM
same,TGI,KM12 colon,94.3 µM
same,TGI,OVCAR-5 ovarian,92.6 µM
same,TGI,EKVX NSCLC,> 100 µM
same,TGI,SNB-75 CNS,50.6 µM
same,TGI,786-0 renal,38.6 µM
same,TGI,HCC-2998 colon,> 100 µM
same,TGI,CAKI-1 renal,72.7 µM
same,TGI,SK-MEL-5 melanoma,34 µM
same,TGI,K-562 leukemia,77.7 µM
same,TGI,TK-10 renal,66.4 µM
same,TGI,ACHN renal,42.2 µM
same,TGI,SF-539 CNS,42.9 µM
same,TGI,MDA-MB-231 breast,40.2 µM
same,TGI,M14 melanoma,> 100 µM
same,TGI,MCF7 breast,> 100 µM
same,TGI,NCI-H23 lung,72.4 µM
same,TGI,HCT-116 colon,35.2 µM
same,TGI,HT29 colon,> 100 µM
same,TGI,HL-60(TB) leukemia,37.6 µM
same,TGI,OVCAR-8 ovarian,34.4 µM
same,TGI,T-47D breast,91 µM
same,TGI,NCI-H522 lung,79.7 µM
same,TGI,MALME-3M melanoma,40.8 µM
same,TGI,HS 578T breast,87.6 µM
same,TGI,UACC-62 melanoma,61.9 µM
same,TGI,LOX IMVI melanoma,41.8 µM
same,TGI,A498 renal,36.8 µM
same,TGI,SNB-19 CNS,> 100 µM
same,TGI,UO-31 renal,40.2 µM
same,TGI,SF-268 CNS,71.1 µM
same,TGI,MDA-N,> 100 µM
same,TGI,HOP-62 NSCLC,40.4 µM
same,TGI,U251 CNS,> 100 µM
same,TGI,A549 NSCLC,55.6 µM
same,TGI,RPMI-8226 leukemia,66.2 µM
same,TGI,OVCAR-3 ovarian,36.8 µM
same,TGI,NCI-H226 lung,56.1 µM
same,TGI,NCI/ADR-RES ovarian,33.6 µM
